# Assay results as given in publication PMC11022890 (Drug Metabolism and Disposition, 2021).
# What was measured:
# [1] = target: T1, UGT1A6 in human liver microsomes (Homo sapiens, UniProt P19224); assay: Inhibition of serotonin glucuronidation; settings: HLM
# T1 sequence (P19224 27-532): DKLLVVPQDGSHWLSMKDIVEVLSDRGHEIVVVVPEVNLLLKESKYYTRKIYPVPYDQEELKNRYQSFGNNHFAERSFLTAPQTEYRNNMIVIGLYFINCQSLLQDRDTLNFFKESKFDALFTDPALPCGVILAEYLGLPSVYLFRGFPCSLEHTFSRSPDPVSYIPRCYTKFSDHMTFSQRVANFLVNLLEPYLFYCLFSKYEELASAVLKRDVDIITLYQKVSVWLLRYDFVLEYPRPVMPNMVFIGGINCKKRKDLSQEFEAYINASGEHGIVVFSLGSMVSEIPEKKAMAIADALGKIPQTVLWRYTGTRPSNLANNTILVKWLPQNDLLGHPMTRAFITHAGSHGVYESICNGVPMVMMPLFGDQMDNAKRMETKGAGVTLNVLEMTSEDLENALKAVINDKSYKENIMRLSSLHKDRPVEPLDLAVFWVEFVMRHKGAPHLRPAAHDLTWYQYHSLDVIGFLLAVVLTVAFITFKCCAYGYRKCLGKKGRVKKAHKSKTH
# [2] = 400 mg oral dose; ref Manini et al., 2015; cited from earlier work
# [3] = target: T2, UGT1A6 in human kidney microsomes (Homo sapiens, UniProt P19224); assay: Inhibition of serotonin glucuronidation; settings: HKM
# T2 sequence (P19224 27-532): T1 sequence (P19224 27-532)
# [4] = target: T3, UGT1A6 (Homo sapiens, UniProt P19224); assay: Inhibition of serotonin glucuronidation in rUGT1A6 microsomes; assay type: in vitro ADME; settings: for inhibition vs control without cannabinoid: serotonin
# T3 sequence (P19224 27-532): T1 sequence (P19224 27-532)
# [5] = Nonspecific binding; assay type: in vitro ADME; settings: human
# [6] = target: T4, UGT2B10 (Homo sapiens, UniProt P36537); assay: Screening: inhibition of nicotine glucuronidation in rUGT2B10 microsomes; assay type: in vitro ADME; settings: 100 µM
# T4 sequence (P36537 24-528): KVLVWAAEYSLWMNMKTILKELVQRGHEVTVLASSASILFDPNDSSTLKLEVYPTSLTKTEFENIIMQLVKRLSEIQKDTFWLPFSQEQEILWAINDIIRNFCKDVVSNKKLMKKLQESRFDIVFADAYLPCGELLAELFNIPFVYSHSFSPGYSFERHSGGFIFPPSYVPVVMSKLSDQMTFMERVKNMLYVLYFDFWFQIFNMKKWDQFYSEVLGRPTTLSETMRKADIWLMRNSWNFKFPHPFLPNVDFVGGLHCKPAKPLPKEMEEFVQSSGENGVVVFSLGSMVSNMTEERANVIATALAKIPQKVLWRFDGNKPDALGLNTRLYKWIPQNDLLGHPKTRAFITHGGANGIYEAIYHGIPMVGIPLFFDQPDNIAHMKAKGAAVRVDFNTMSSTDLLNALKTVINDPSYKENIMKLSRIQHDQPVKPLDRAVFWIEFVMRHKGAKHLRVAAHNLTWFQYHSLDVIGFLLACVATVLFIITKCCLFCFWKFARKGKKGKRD
# [7] = Nonspecific binding; assay type: in vitro ADME; settings: human, incubation mixture with human liver microsomes
# [8] = Nonspecific binding; assay type: in vitro ADME; settings: human, incubation mixture with human kidney microsomes
# [9] = IC50, probe substrate serotonin
# [10] = IC50,u (binding-corrected IC50), probe substrate serotonin
SMILES,"IC50 [1, 9]","IC50 [1, 10]",average plasma level [2],"IC50 [3, 9]","IC50 [3, 10]","inhibition vs control without cannabinoid ([4]; 10 µM, screening)","inhibition vs control without cannabinoid ([4]; 100 µM, screening in duplicate)","IC50 [4, 10]",fraction unbound [5],inhibition vs control without cannabinoid [6],fraction unbound [7],fraction unbound [8]
"C=C(C)[C@@H]1CCC(C)=C[C@H]1c1c(O)cc(CCCCC)cc1O [CBD, cannabidiol]",28 ± 6.5 µM,1.4 ± 0.33 µM,181 µg/L,17 ± 3.7 µM,1 ± 0.23 µM,25%,54%,0.4 ± 0.1 µM,,,,
"CCCCCc1cc(O)c2c(c1)OC(C)(C)c1ccc(C)cc1-2 [CBN, cannabinol]",,,,,,,43%,,0.085 ± 0.005,47%,0.092 ± 0.006,0.12 ± 0.015
